This assay relates to soybean rust fungus (Phakopsora pachyrhizi) having an amino acid substitution of F129L in a mitochondrial cytochrome b protein. Nature of the assay: Leaf disc test of control of soybean rust (lesion area) after spraying the test compound. Type of assay: in vivo. To be noted: Comparative Test Example 1, according to Test Example 1. On the procedure: A true leaf of a soybean (cultivar: Kurosengoku) was cut into a diameter of 1 cm to prepare each leaf disc. To each well of a 24 well microplate was dispensed 1 mL of an agar medium (agar concentration 1.2%), and then one of said leaf disc was placed on each well. To a mixture of Sorpol (registered trademark) 1200KX (0.5 μL), DMSO (4.5 μL), and xylene (5 μL) was added a DMSO solution (20 μL) comprising a test compound (10000 ppm), and the resulting mixture was mixed. The resulting mixture was diluted with ion exchange water to prepare a spray solution comprising a prescribed concentration of the test compound. Said spray solution was sprayed into each leaf disc at a ratio of 10 μL per leaf disc. After 1 day, an aqueous suspension of spores of soybean rust fungus (Phakopsora pachyrhizi) having an amino acid substitution of F129L in a mitochondrial cytochrome b protein (1.0×10^5/mL) was inoculated by spraying on each leaf disc. After the inoculation, the microplate was placed into an artificial climate chamber (Lighting: 6 hours, Lights-out: 18 hours, Temperature: 23° C., Humidity: 60%). After 1 day, the leaf discs were air-dried until water droplets on the surfaces of the leaf discs disappeared, and the microplate was placed into the artificial climate chamber again for 12 days. Then, lesion area of soybean rust was investigated. As a result, when the prescribed concentration was 50 ppm, each lesion area of leaf disc treated with any one of the Present compound 2 to 13, 15 to 30, 33 to 40, 42 to 49, 52 to 56, 58, 60, 65, 66, or 74 to 79 as the test compound was 30% or less relative to the lesion area of non-treated leaf disc. Here, the term of “non-treated” means that a spray solution comprising a test compound was not sprayed into a leaf disc.
Each test is carried out according to the Test Example 1 by using any one of the Present compound S as the test compound with a prescribed concentration of 12.5 ppm. As a result, control effects on soybean rust can be confirmed in the leaf discs treated with test compounds.
Each test is carried out according to the Test Example 1 by using any one of the Present compound S as the test compound with a prescribed concentration of 3.1 ppm. As a result, control effects on soybean rust can be confirmed in the leaf discs treated with test compounds.
Each test was carried out according to the Test Example 1 by using the Present compound 4, 3, 11, or 42, or azoxystrobin, dimoxystrobin, or metominostrobin as the test compound with a prescribed concentration of 50 ppm.
For `CO/C=C(/C(=O)OC)c1ccccc1Oc1cc(Oc2ccccc2C#N)ncn1` [Azoxystrobin, reference compound], the “Lesion area (%) at the concentration of 50 ppm” value (from here on “Lesion area (%)”) came out at 100%. For the molecule `CNC(=O)/C(=N/OC)c1ccccc1COc1cc(C)ccc1C` [Dimoxystrobin, reference compound], the “Lesion area (%)” value stood at 100%. The same measure for `CNC(=O)/C(=N/OC)c1ccccc1Oc1ccccc1` [Metominostrobin, reference compound]: 100%; for `CO/C=C(/C(=O)OC)n1ncc2ccc(-c3ccccc3)cc21` [Present compound 3]: 0%. The same measure for `CO/C=C(/C(=O)OC)n1c2ccccc2c2ccc(Br)cc21` [Present compound 4]: 0%.

Take `CO/C=C(/C(=O)OC)n1ccc2ccc(C#CC3CC3)cc21` [Present compound 11]: the “Lesion area (%)” value is listed as 0%.

As for `CO/C=C(/C(=O)OC)n1ccc2ccc(/C(C)=N/OC)cc21` [Present compound 42], the “Lesion area (%)” value is 0%.
